# Values joined by “and” are separate entries in the source; they are usually repeats but may differ in a detail not shown here. Equal entries are not always repeated.
# What was measured:
# [1] = Ex vivo biodistribution of 177Lu-complexes in Wistar rats; settings: for Biodistribution of radioactivity, Adipose tissue / Biodistribution of radioactivity, Adrenal gland / Biodistribution of radioactivity, Blood / Biodistribution of radioactivity, Brain / Biodistribution of radioactivity, Femur / Biodistribution of radioactivity, Harderian gland / Biodistribution of radioactivity, Heart / Biodistribution of radioactivity, Kidneys / Biodistribution of radioactivity, Liver / Biodistribution of radioactivity, Lung / Biodistribution of radioactivity, Muscle / Biodistribution of radioactivity, Pancreas / Biodistribution of radioactivity, Spleen / Biodistribution of radioactivity, Testes / Biodistribution of radioactivity, Thymus: i.v.
# Source text: (§1) The experiments were realized corresponding to the German animal welfare regulations and institutional guidelines and with the permission of the local animal research committee at the Landesdirektion, Dresden. All experimental procedures are following the guidelines of the European Convention for the Protection of Vertebrate Animals used for Experimental and other Scientific Purposes (ETS No. 123). Male Wistar rats weighing 157.69 ± 17.10 g (mean ± SD, N = 35) were purchased from Unilever (HsdCpb:WU, Harlan Winkelmann, Borchen, Germany). Anesthetization was initiated and maintained by desflurane, and animals were put in the supine position and placed on a heating pad to maintain body temperature. A needle catheter was used for administration of the tracers in the tail vein. A second catheter was introduced into the right femoral artery for the extraction of blood samples for metabolite analysis, which was routinely done during SPECT/CT measurements.
# The male Wistar rats received a short-term anesthetization by desflurane inhalation. Mean activities of 2.36 ± 0.27 MBq/kg of the ^177Lu-labelled tracers in isotonic saline were injected in a volume of 0.5 mL in the tail vein, with the following specific details: [^177Lu]citrate: 2.56 ± 0.07 MBq/kg, 128.58 body weight (BW, g), n = 4 (g); [^177Lu]BPAMD: 2.33 ± 0.11 MBq/kg, 159.41 BW (g), n = 4 (g); [^177Lu]BPAPD: 2.58 ± 0.24 MBq/kg, 156.38 BW (g), n = 4 (g); [^177Lu]BPPED: 2.27 ± 0.25 MBq/kg, 153.43 BW (g), n = 4 (g); [^177Lu]NO2AP^BP: 2.52 ± 0.25 MBq/kg, 173.82 BW (g), n = 4 (g); [^177Lu]DOTA(M^BP)2: 1.80 ± 0.10 MBq/kg, 181.64 BW (g), n = 4 (g); [^177Lu]DO2A(P^BP)2: 2.46 ± 0.15 MBq/kg, 150.60 BW (g), n = 4 (g). The compounds [^177Lu]DOTA(M^BP)2, [^177Lu]BPPED, and [^177Lu]BPAMD were further chosen for a biodistribution study after 8 days p.i. A mean activity of 19.0 ± 2.5 MBq/kg was injected. Animals were sacrificed after 5 min, 60 min, and 8 days p.i. Organs of interest were excised rapidly and weighed, and the ^177Lu activity was determined with a Wallac WIZARD automatic gamma counter (PerkinElmer, Germany) and decay corrected. The distribution data are expressed in %ID or are normalized to the BW as standard uptake value (SUV), which was calculated with the formula: SUV = (activity per g tissue)/(injected activity) × BW. The skeleton weight was calculated using the following: skeleton weight = 9.66 + 0.0355 × BW, and the total activities associated with the skeleton were calculated by using the activity concentration in the femur and the total skeleton weight.
# [2] = Metabolite analysis and in vivo stability, arterial blood and urine samples; parameters: species or system Wistar rats
# Source text: as §1
# Arterial blood plasma samples were taken during SPECT/CT examinations after 1, 3, 5, 10, 20, 30, 60, and 120 min. p.i., and the in vivo metabolism of [^177Lu]BPAMD, [^177Lu]BPAPD, [^177Lu]BPPED, [^177Lu]NO2AP^BP, [^177Lu]DOTA(M^BP)2, and [^177Lu]DO2A(P^BP)2 was analyzed. Plasma was separated by centrifugation (3 min, 11,000×g) followed by precipitation of the plasma proteins with ice-cold methanol (1.5 parts per 1 part plasma) and centrifugation (3 min, 11,000×g). The supernatants were analyzed by radio-TLC and HPLC using the abovementioned methods for quality control. Additionally, urine samples were treated in the same way prior radio-TLC and radio-HPLC analysis.
# [3] = 5 min p.i., mean of four animals
# [4] = 60 min p.i., mean of four animals
# [5] = 8 days p.i., mean for five animals
compound,measurement,setting,value
"O=C(O)CN1CCN(CC(=O)O)CCN(CC(=O)NC(P(=O)(O)O)P(=O)(O)O)CCN(CC(=O)O)CC1 [[^177Lu]BPAMD, metal not drawn]",Ratio Bone/Adipose tissue,[1]; 5 min p.i.,8.0
same,Ratio Bone/Adrenal gland,[1]; 5 min p.i.,8.4
same,Ratio Bone/Blood,[1]; 5 min p.i.,3.7
same,Ratio Bone/Brain,[1]; 5 min p.i.,83.9
same,Ratio Bone/Harderian gland,[1]; 5 min p.i.,9.3
same,Ratio Bone/Heart,[1]; 5 min p.i.,9.3
same,Ratio Bone/Kidneys,[1]; 5 min p.i.,0.7
same,Ratio Bone/Liver,[1]; 5 min p.i.,12.9
same,Ratio Bone/Lung,[1]; 5 min p.i.,5.5
same,Ratio Bone/Muscle,[1]; 5 min p.i.,17.7
same,Ratio Bone/Pancreas,[1]; 5 min p.i.,10.8
same,Ratio Bone/Spleen,[1]; 5 min p.i.,9.1
same,Ratio Bone/Testes,[1]; 5 min p.i.,13.4
same,Ratio Bone/Thymus,[1]; 5 min p.i.,11.6
same,"Biodistribution of radioactivity, Adipose tissue",[1]; [3],0.42 SUV
same,"Biodistribution of radioactivity, Adrenal gland",[1]; [3],0.40 SUV
same,"Biodistribution of radioactivity, Blood",[1]; [3],0.90 SUV
same,"Biodistribution of radioactivity, Brain",[1]; [3],0.04 SUV
same,"Biodistribution of radioactivity, Femur",[1]; [3],3.36 SUV
same,"Biodistribution of radioactivity, Harderian gland",[1]; [3],0.36 SUV
same,"Biodistribution of radioactivity, Heart",[1]; [3],0.36 SUV
same,"Biodistribution of radioactivity, Kidneys",[1]; [3],4.53 SUV
same,"Biodistribution of radioactivity, Liver",[1]; [3],0.26 SUV
same,"Biodistribution of radioactivity, Lung",[1]; [3],0.61 SUV
same,"Biodistribution of radioactivity, Muscle",[1]; [3],0.19 SUV
same,"Biodistribution of radioactivity, Pancreas",[1]; [3],0.31 SUV
same,"Biodistribution of radioactivity, Spleen",[1]; [3],0.37 SUV
same,"Biodistribution of radioactivity, Testes",[1]; [3],0.25 SUV
same,"Biodistribution of radioactivity, Thymus",[1]; [3],0.29 SUV
same,Ratio Bone/Adipose tissue,[1]; 60 min p.i.,134.5
same,Ratio Bone/Adrenal gland,[1]; 60 min p.i.,109.6
same,Ratio Bone/Blood,[1]; 60 min p.i.,135.6
same,Ratio Bone/Brain,[1]; 60 min p.i.,613.4
same,Ratio Bone/Harderian gland,[1]; 60 min p.i.,118.8
same,Ratio Bone/Heart,[1]; 60 min p.i.,210.1
same,Ratio Bone/Kidneys,[1]; 60 min p.i.,14.0
same,Ratio Bone/Liver,[1]; 60 min p.i.,127.5
same,Ratio Bone/Lung,[1]; 60 min p.i.,69.1
same,Ratio Bone/Muscle,[1]; 60 min p.i.,251.7
same,Ratio Bone/Pancreas,[1]; 60 min p.i.,136.4
same,Ratio Bone/Spleen,[1]; 60 min p.i.,68.2
same,Ratio Bone/Testes,[1]; 60 min p.i.,179.1
same,Ratio Bone/Thymus,[1]; 60 min p.i.,58.6
same,"Biodistribution of radioactivity, Adipose tissue",[1]; [4],0.04 SUV
same,"Biodistribution of radioactivity, Adrenal gland",[1]; [4],0.04 SUV
same,"Biodistribution of radioactivity, Blood",[1]; [4],0.04 ± 0.01 SUV and 0.04 SUV
same,"Biodistribution of radioactivity, Brain",[1]; [4],0.01 SUV
same,"Biodistribution of radioactivity, Femur",[1]; [4],4.84 ± 0.44 SUV and 4.84 SUV
same,"Biodistribution of radioactivity, Harderian gland",[1]; [4],0.04 SUV
same,"Biodistribution of radioactivity, Heart",[1]; [4],0.02 SUV
same,"Biodistribution of radioactivity, Kidneys",[1]; [4],0.35 SUV
same,"Biodistribution of radioactivity, Liver",[1]; [4],0.04 SUV
same,"Biodistribution of radioactivity, Lung",[1]; [4],0.07 SUV
same,"Biodistribution of radioactivity, Muscle",[1]; [4],0.02 SUV
same,"Biodistribution of radioactivity, Pancreas",[1]; [4],0.04 SUV
same,"Biodistribution of radioactivity, Spleen",[1]; [4],0.07 SUV
same,"Biodistribution of radioactivity, Testes",[1]; [4],0.03 SUV
same,"Biodistribution of radioactivity, Thymus",[1]; [4],0.08 SUV
same,Ratio Bone/Adipose tissue,[1]; 8 days p.i.,1158
same,Ratio Bone/Adrenal gland,[1]; 8 days p.i.,547
same,Ratio Bone/Blood,[1]; 8 days p.i.,6703
same,Ratio Bone/Brain,[1]; 8 days p.i.,1405
same,Ratio Bone/Harderian gland,[1]; 8 days p.i.,48
same,Ratio Bone/Heart,[1]; 8 days p.i.,885
same,Ratio Bone/Kidneys,[1]; 8 days p.i.,66
same,Ratio Bone/Liver,[1]; 8 days p.i.,203
same,Ratio Bone/Lung,[1]; 8 days p.i.,634
same,Ratio Bone/Muscle,[1]; 8 days p.i.,37
same,Ratio Bone/Pancreas,[1]; 8 days p.i.,851
same,Ratio Bone/Spleen,[1]; 8 days p.i.,257
same,Ratio Bone/Testes,[1]; 8 days p.i.,1136
same,Ratio Bone/Thymus,[1]; 8 days p.i.,787
same,"Biodistribution of radioactivity, Adipose tissue",[1]; [5],0.004 SUV
same,"Biodistribution of radioactivity, Adrenal gland",[1]; [5],0.009 SUV
same,"Biodistribution of radioactivity, Blood",[1]; [5],0.001 SUV
same,"Biodistribution of radioactivity, Brain",[1]; [5],0.004 SUV
same,"Biodistribution of radioactivity, Femur",[1]; [5],5.039 SUV
same,"Biodistribution of radioactivity, Harderian gland",[1]; [5],0.105 SUV
same,"Biodistribution of radioactivity, Heart",[1]; [5],0.006 SUV
same,"Biodistribution of radioactivity, Kidneys",[1]; [5],0.076 SUV
same,"Biodistribution of radioactivity, Liver",[1]; [5],0.025 SUV
same,"Biodistribution of radioactivity, Lung",[1]; [5],0.008 SUV
same,"Biodistribution of radioactivity, Muscle",[1]; [5],0.136 SUV
same,"Biodistribution of radioactivity, Pancreas",[1]; [5],0.006 SUV
same,"Biodistribution of radioactivity, Spleen",[1]; [5],0.020 SUV
same,"Biodistribution of radioactivity, Testes",[1]; [5],0.004 SUV
same,"Biodistribution of radioactivity, Thymus",[1]; [5],0.006 SUV
same,Total skeletal retention,"[1]; 8 days p.i., calculated from femur activity concentration and total skeleton weight",constant over 8 days
same,Total skeleton retention,"[1]; after 60 min, calculated from femur activity concentration and total skeleton weight",46.7 ± 5.3 %ID
same,Blood half-life of the slow component (t1/2(β)),"[2]; arterial blood, single intravenous injection",23.3 min
same,Metabolization in blood samples (radio-HPLC and TLC),[2]; within a period of 120 min,no evidence of any metabolization
